The record followed here is ChEMBL document CHEMBL1136851, “Identification of 4-hydroxyquinolines inhibitors of p300/CBP histone acetyltransferases” (Bioorg Med Chem Lett, 2009).

Each structure is given as a SMILES string. The source made the active and inactive calls. The calls are words filed in the database; no cut-off is given here.

For assay [1], the target named is Histone acetyltransferase KAT2A (Homo sapiens) (UniProt Q92830). The experiment in a line: Inhibition of human histone acetyltransferase GCN5 in U937 cell nuclear extracts assessed as remaining enzyme activity at 50 uM. The assay is classed as cell-free. As to conditions: U-937.
The subject of assay [2] is U-937. Description: Induction of cell differentiation in human U937 cells assessed as cytodifferentiation at 20 uM after 24 hrs by CD11c/PI method. It counts as functional, cell-based.
The target in assay [3] is Histone acetyltransferase KAT2B (Homo sapiens) (UniProt Q92831). The experiment in a line: Inhibition of human GST-fused histone acetyltransferase PCAF in U937 cell nuclear extracts assessed as remaining enzyme activity at 50 uM. The assay is classed as cell-free. As to conditions: U-937.
Assay [4] concerns U-937. The experiment in a line: Cell cycle arrest in human U937 cells assessed as loss of accumulation at G2 phase at 20 nM after 24 hrs. The assay is classed as functional, cell-based.
Assay [5] has as its system U-937. Description: Inhibition of SAHA-induced histone H3 acetylation in human U937 cells at 100 uM after 4 hrs by Western blot analysis. It counts as functional, cell-based. (In general: A western blot detects proteins with antibodies after separation by electrophoresis.)
Assay [6] addresses CREB-binding protein (Homo sapiens) (UniProt Q92793). Description: Inhibition of human GST-fused histone acetyltransferase CBP in U937 cell nuclear extracts assessed as remaining enzyme activity at 50 uM. The assay is classed as cell-free. The settings on record: U-937.
The test system of assay [7] is U-937. Description: Inhibition of SAHA-induced alpha tubulin acetylation in human U937 cells at 100 uM after 4 hrs by Western blot analysis. The assay is classed as functional, cell-based.
Assay [8] has as its target Histone acetyltransferase p300 (Homo sapiens) (UniProt Q09472). The experiment in a line: Inhibition of human immunoprecipitated histone acetyltransferase p300 in U937 cell nuclear extracts assessed as remaining enzyme activity at 50 uM. It counts as cell-free. The settings on record: U-937.
Assay [9] has as its system U-937. The experiment in a line: Cell cycle arrest in human U937 cells assessed as accumulation at G1/S phase at 20 nM after 24 hrs. It counts as functional, cell-based.
In assay [10] the test system is U-937. The experiment in a line: Inhibition of human histone acetyltransferase in U937 cell nuclear extracts at 50 uM. It counts as cell-free.
Assay [11] concerns U-937. Description: Induction of apoptosis in human U937 cells at 100 uM by annexin V/propidium iodide double staining. The assay is classed as functional, cell-based.
Assay [12] relates to U-937. Description: Induction of apoptosis in human U937 cells at 20 uM by annexin V/propidium iodide double staining. The assay is classed as functional, cell-based.

Sequence of CREB-binding protein (Homo sapiens) (Q92793 2-2442 limits assumed): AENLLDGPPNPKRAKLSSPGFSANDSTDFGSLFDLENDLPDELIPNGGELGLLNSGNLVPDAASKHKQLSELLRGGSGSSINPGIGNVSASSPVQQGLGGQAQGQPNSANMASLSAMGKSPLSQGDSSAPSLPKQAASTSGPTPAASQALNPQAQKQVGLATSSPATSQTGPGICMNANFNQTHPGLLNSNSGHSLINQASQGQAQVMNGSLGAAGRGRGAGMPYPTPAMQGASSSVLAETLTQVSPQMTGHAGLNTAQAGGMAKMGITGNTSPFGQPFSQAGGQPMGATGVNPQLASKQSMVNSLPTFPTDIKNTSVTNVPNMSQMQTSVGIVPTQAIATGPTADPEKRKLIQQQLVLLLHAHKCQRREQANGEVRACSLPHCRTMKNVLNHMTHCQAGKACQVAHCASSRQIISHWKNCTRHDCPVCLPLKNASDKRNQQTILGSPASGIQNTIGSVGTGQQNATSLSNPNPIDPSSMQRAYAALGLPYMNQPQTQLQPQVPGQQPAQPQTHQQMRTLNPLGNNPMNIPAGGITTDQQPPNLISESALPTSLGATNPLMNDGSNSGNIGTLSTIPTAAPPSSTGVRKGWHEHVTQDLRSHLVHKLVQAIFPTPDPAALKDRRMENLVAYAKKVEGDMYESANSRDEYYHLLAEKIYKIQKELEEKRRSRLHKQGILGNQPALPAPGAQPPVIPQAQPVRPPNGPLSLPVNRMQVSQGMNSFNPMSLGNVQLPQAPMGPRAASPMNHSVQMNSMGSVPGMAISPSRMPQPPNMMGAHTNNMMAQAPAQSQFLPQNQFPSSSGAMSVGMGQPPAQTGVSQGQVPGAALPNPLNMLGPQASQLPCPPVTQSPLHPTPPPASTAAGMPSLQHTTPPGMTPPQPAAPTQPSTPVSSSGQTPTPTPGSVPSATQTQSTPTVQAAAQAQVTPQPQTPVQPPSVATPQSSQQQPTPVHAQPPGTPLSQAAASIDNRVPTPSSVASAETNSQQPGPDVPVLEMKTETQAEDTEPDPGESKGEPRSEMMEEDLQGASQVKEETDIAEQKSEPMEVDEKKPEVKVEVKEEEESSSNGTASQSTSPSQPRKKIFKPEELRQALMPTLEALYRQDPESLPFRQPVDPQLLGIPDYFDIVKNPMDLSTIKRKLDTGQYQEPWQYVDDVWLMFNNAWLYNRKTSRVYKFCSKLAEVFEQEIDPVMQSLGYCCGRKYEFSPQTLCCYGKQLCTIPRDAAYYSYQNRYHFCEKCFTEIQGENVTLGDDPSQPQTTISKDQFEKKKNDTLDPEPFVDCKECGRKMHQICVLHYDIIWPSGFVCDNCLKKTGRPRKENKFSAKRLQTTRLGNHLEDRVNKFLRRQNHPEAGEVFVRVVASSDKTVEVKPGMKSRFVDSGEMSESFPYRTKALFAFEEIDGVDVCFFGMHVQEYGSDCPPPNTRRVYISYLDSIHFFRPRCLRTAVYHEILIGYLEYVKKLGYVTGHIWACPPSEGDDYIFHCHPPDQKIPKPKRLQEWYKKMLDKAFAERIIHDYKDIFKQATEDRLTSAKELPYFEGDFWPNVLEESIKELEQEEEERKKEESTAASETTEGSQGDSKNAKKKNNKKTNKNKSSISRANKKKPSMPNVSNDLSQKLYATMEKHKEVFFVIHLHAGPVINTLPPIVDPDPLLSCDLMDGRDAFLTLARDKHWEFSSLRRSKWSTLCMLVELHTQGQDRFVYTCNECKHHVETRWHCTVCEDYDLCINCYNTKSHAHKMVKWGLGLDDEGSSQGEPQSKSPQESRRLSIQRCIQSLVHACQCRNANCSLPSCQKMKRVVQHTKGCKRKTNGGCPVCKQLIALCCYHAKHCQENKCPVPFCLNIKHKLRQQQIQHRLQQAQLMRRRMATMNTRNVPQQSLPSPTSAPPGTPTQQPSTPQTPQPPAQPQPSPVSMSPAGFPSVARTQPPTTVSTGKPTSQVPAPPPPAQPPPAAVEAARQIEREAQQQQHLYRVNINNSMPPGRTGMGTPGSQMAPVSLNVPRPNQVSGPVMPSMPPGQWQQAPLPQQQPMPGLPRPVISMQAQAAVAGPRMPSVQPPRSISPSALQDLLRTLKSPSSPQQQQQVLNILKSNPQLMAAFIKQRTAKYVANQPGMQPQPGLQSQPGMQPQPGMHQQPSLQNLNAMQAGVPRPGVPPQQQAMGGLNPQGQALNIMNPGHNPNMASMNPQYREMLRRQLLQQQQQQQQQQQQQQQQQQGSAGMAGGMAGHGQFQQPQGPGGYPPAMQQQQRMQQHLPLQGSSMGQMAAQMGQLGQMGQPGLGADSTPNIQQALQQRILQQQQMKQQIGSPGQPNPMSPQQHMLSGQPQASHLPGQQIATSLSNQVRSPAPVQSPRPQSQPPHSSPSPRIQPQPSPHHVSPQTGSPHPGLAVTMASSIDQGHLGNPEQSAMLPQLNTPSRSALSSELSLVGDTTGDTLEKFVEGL
Sequence of Histone acetyltransferase p300 (Homo sapiens) (Q09472 whole entry): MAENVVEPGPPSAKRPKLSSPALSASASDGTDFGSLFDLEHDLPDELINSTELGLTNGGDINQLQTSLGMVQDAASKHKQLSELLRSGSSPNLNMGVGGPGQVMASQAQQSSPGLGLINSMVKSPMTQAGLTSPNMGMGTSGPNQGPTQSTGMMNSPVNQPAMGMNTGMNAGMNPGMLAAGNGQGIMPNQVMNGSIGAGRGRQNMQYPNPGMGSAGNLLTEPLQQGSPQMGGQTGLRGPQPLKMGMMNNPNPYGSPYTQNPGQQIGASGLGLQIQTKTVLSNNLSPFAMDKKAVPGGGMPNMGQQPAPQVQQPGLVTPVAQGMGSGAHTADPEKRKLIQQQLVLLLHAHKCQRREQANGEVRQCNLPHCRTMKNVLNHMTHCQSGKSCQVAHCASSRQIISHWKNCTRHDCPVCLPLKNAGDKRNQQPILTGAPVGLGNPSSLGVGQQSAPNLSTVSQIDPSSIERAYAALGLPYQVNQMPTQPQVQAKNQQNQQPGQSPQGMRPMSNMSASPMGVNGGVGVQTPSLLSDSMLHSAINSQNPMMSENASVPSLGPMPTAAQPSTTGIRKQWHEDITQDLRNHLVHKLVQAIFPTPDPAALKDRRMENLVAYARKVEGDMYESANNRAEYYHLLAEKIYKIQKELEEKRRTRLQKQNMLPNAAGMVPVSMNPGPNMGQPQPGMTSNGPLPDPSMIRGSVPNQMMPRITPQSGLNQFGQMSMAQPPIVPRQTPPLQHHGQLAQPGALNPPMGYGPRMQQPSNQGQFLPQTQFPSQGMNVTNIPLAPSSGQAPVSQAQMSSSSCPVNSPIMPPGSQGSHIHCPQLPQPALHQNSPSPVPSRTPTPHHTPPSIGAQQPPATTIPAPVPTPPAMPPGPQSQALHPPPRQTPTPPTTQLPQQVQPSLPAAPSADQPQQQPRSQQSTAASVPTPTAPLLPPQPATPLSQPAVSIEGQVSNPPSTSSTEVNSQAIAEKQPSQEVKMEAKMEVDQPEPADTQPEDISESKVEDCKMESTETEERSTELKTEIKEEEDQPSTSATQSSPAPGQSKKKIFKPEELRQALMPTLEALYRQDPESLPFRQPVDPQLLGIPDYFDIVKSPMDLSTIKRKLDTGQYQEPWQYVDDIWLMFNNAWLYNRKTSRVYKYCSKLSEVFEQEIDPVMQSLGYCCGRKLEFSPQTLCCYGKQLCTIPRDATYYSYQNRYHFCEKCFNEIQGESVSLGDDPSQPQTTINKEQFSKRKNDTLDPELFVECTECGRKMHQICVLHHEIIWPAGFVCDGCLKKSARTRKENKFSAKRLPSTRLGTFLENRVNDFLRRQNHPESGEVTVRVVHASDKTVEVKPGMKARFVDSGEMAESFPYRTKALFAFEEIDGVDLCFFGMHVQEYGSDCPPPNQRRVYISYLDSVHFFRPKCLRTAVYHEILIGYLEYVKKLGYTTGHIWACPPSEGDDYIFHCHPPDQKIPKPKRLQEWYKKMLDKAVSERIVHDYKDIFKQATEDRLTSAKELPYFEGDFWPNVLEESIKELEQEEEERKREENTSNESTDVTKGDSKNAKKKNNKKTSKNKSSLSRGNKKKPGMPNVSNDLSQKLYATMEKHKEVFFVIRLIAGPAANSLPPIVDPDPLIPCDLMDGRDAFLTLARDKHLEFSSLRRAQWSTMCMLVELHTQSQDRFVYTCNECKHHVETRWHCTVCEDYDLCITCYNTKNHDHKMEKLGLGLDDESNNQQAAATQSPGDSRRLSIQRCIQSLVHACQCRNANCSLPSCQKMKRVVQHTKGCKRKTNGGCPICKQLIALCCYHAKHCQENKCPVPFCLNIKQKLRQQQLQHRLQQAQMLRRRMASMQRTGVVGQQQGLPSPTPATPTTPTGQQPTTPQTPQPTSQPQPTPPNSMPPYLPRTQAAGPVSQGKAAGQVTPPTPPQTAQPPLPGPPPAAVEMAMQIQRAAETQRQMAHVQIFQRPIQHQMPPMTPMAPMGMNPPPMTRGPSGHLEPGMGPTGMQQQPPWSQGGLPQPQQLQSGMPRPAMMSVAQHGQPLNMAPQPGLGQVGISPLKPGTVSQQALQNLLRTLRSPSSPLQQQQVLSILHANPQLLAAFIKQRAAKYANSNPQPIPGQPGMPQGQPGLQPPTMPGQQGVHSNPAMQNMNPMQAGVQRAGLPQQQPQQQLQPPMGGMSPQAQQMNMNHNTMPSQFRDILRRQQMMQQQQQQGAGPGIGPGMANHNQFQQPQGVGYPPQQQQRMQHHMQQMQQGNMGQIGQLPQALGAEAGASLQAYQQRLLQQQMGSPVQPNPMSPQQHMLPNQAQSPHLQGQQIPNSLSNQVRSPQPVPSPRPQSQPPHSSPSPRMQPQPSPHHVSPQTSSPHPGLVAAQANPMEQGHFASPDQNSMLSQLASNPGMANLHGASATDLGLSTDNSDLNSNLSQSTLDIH

Turning to `Cc1nc2ccccc2c(O)c1C(=O)O`, the Activity in [1] was 97.4%; in [3], 104%; in assay [6], 20.5%; in assay [8], 11.4%. Moreover, the outcome in assay [2], in assay [5] and in [7] was Active. For the same molecule, the outcome in [4] and in [9] was inactive.
As for `CCCCCCCCCCCCCCCc1nc2ccccc2c(O)c1C(=O)O`, the Activity in assay [1] stood at 103%; in [3], 62.7%; in [6], 14.4%; in [8], 46.9%. In addition, the result in [2], in assay [5] and in [7] was Active. The result in assay [4] and in assay [9] was inactive.
Turning to `CCCCCc1nc2ccccc2c(O)c1C(=O)O`, the Activity came out at 98% in assay [1], 103% in assay [3], 19% in assay [6] and 82% in [8]. Moreover, the outcome in assay [2], in assay [5] and in assay [7] was Active. Also, the outcome in assay [4] and in assay [9] was inactive. For the same molecule, the inhibition in assay [10] is 30%.
`CCOC(=O)c1c(C)nc2ccccc2c1O`: the Activity in [1] stood at 97.4%; in assay [3] it was 81.7%; in assay [6], 13.4%; in assay [8] it was 16.4%. For the same molecule, the outcome in [2] and in assay [5] was Active. Besides, the result in [4], in assay [7] and in [9] was inactive.
In the case of `CCCCCCCCCCc1nc2ccccc2c(O)c1C(=O)O`, the Activity in assay [1] was 95.4%; in [3], 91.5%; in assay [6], 13.2%; in [8], 53.9%. Also, the outcome in assay [2], in assay [5] and in [7] was Active. Moreover, the outcome in [4] and in assay [9] was inactive.
For the molecule `C=C1C(=O)O[C@H](CCC)[C@H]1C(=O)O`, the Activity is 54.5% in assay [1], 76.8% in assay [3], 45.9% in [6] and 58.6% in assay [8]. The molecule further gave an inhibition in assay [10] of 44%.
On to `C=CC/C=C\C/C=C\CCCCCCCc1cccc(O)c1C(=O)O`, for which the Activity in assay [1] turned out to be 113%; in [3] it was 52.1%; in [6], 44%; in assay [8] it was 53.1%. The molecule further came in with an inhibition in assay [10] of 15%.
Turning to `CCCCCCCCCCCCCCCc1nc2ccccc2c(O)c1C(=O)OCC`, the Activity in assay [1] came to 96.8%; in assay [3], 82.4%; in assay [6], 116%; in [8], 39.8%. In addition, the outcome in [2], in assay [11], in assay [4], in [5], in [7] and in assay [9] was Active. In assay [12], the result was Active.
`CCCCCCCCCCc1nc2ccccc2c(O)c1C(=O)OCC`: the Activity in [1] was 93.4%; in assay [3], 90.1%; in assay [6], 93.4%; in assay [8], 39.1%. Also, the result in [2], in assay [11], in assay [4], in assay [5], in assay [9] and in assay [12] was Active. In assay [7], the result was inactive.
On to `CCCCCc1nc2ccccc2c(O)c1C(=O)OCC`, for which the Activity in assay [1] was determined as 102%; in [3], 100%; in [6] it was 91.2%; in assay [8], 47.7%. For the same molecule, the result in assay [2], in [5] and in assay [7] was Active. Besides, the outcome in assay [4] and in assay [9] was inactive.

As usually defined, the inhibition is the share of the control response that was lost under treatment.
